The subject of series [1] is Wnt pathway and the Notch pathway. The experiment in a line: qPCR of ATOH1, HES1, AXIN2, CTNNB1 during differentiation of hIEC progenitors into functional hIECs. Conditions: 2 μM Wnt-059 and 1 mM valproic acid together in hIEC differentiation medium 2; functional vs immature hIECs; FIG. 7. The series is classed as cell-based, human. The source says:
To identify effects of Wnt-059 and valproic acid, which belong to the components of the hIEC differentiation medium 2 in Example 2, on the Wnt pathway and the Notch pathway during differentiation of hIEC progenitors into functional hIECs, expression levels of ATOH1, HES1, AXN2, and CTNNB1 genes in human small intestine (hSI) tissue, immature hIECs, and functional hIECs were checked through qPCR analysis. Here, inactivation of the Wnt pathway and activation of the Notch pathway inhibited differentiation of ISCs into secretory cells. qPCR was performed in the same manner as in Experimental Example 1, and the primers used are shown in Table 3 below.

A further series in a line: in vitro. The series is classed as in vitro ADME, human. To be noted: human. As to the method: (§1) The cells were prepared in the same manner as in Experimental Example 6.1. The functional hIECs and the Caco-2 cell line were washed 3 times with a transport buffer. […] The concentration of each compound in the sample was analyzed using LC-MS/MS. The apparent permeability coefficient was calculated according to the following equation. [formula] In the equation, dQ/dt, A, and C0 represent a transport rate, a surface area of the insert, and an initial concentration of the compound in the donor compartment, respectively. Chromatographic quantification of each compound was performed using an LC-tandem mass spectrometry system equipped with Shimadzu Prominence UPLC system (Shimadzu, Kyoto, Japan) and API 2000 QTRAP mass spectrometer (Applied Biosystems, Foster City, CA, USA). […] Then, an aliquot (10 μl) of the supernatant was injected directly into the LC-MS/MS system. Separation was performed using a Waters XTerra MS C18 column (2.1×50 mm, 5 μm, Milford, MA, USA) with a concentration gradient of 0.1% formic acid in acetonitrile and 0.1% formic acid in water at a flow rate of 0.4 ml/min. Transitions were made as follows to detect the analyte: […]

For a further series, the system named is Caco-2 cell line. The experiment in a line: in vitro. The series is classed as in vitro ADME, human. As to the method: as §1
The test system of the next series is functional hIECs. Briefly: in vitro. The series is classed as in vitro ADME, human. To be noted: Caco-2. As to the method: as §1
Another series has as its system hPSCs. Briefly: qPCR of intestinal epithelial marker genes during differentiation of hPSCs into hIEC progenitors. Conditions: component of hIEC differentiation medium 1; FIG. 2. It is filed as cell-based, human. On the procedure:
In Example 1, to identify effects, on differentiation of the hPSCs into the hIEC progenitors, of R-spondin 1, which is an agonist of Wnt signaling, and insulin in composition of the hIEC differentiation medium 1, expression levels of marker genes related to intestinal epithelial cells were checked through qPCR analysis. Specifically, total RNA and cDNA were prepared using RNeasy kit (Qiagen) and Superscript IV cDNA synthesis kit (Thermo Fisher Scientific Inc.), respectively. qPCR was performed using a 7500 Fast real-time PCR system (Applied Biosystems, Foster City, CA, USA).

By Papp A→B is commonly meant how fast a substance crosses the layer from the apical side. A lower Papp A→B goes with poor permeation.

For the molecule `Cc1cc(-c2ccc(CC(=O)Nc3ccc(-c4cccnc4)cc3)cc2)ccn1` [Wnt-059, Wnt C-59], in series [1], the “effect on Wnt pathway and Notch pathway (qPCR of ATOH1, AXIN2, CTNNB1, HES1)” value is “inhibited the Wnt pathway and activated the Notch pathway”.
With `O=C(O)Cc1ccccc1Nc1c(Cl)cccc1Cl` [diclofenac], the values for the Papp A→B at 2 h in the series “in vitro” and in “in vitro” (Caco-2) were 9.82 ± 0.04 ×10⁻⁶ cm/s and 36.2 ± 1.49 ×10⁻⁶ cm/s, respectively.
For `COCCc1ccc(OCC(O)CNC(C)C)cc1` (centres unmarked) [metoprolol] the same measures were 11.1 ± 1.15 ×10⁻⁶ cm/s and 36.5 ± 1.09 ×10⁻⁶ cm/s.
Turning to `CC(C)NCC(O)COc1cccc2ccccc12` (centres unmarked) [propranolol], the “Fintestine (fraction absorbed in the human intestine) estimated from Papp” value in the series on Caco-2 cell line is reported as 0.98; in the series on functional hIECs, 0.78. Further, the Papp A→B at 2 h in “in vitro” came out at 11 ± 1.28 ×10⁻⁶ cm/s; in “in vitro” (Caco-2) it was 32.3 ± 2.61 ×10⁻⁶ cm/s.
In the case of `CNC(=C[N+](=O)[O-])NCCSCc1ccc(CN(C)C)o1` [ranitidine], the Papp A→B at 2 h amounted to 6.98 ± 0.66 ×10⁻⁶ cm/s in the series “in vitro” and 0.98 ± 0.02 ×10⁻⁶ cm/s in “in vitro” (Caco-2).
Turning to `CCCC(CCC)C(=O)O` [valproic acid], in series [1], the “effect on Wnt pathway and Notch pathway (qPCR of ATOH1, AXIN2, CTNNB1, HES1)” value is “inhibited the Wnt pathway and activated the Notch pathway”.
With “insulin: hormone secreted from beta cells of the islet of Langerhans; component of hIEC differentiation medium 1”, in the series with hPSCs, the “effect on expression of intestinal epithelial marker genes (qPCR)” value is “increased expression of VIL1 and ANPEP”.

B1: R-spondin 1: secreted protein encoded by Rspo1 gene, can promote Wnt/β catenin signals; agonist of Wnt signaling (protein, UniProt Q2MKA7 21-263, looked up)
R-spondin-1: SRGIKGKRQRRISAEGSQACAKGCELCSEVNGCLKCSPKLFILLERNDIRQVGVCLPSCPPGYFDARNPDMNKCIKCKIEHCEACFSHNFCTKCKEGLYLHKGRCYPACPEGSSAANGTMECSSPAQCEMSEWSPWGPCSKKQQLCGFRRGSEERTRRVLHAPVGDHAACSDTKETRRCTVRRVPCPEGQKRRKGGQGRRENANRNLARKESKEAGAGSRRRKGQQQQQQQGTVGPLTSAGPA
With B1, in the series on hPSCs, the “effect on expression of intestinal epithelial marker genes (qPCR)” value is “increased expression of markers of major cell types in the intestinal epithelium”.

These data come from patent US12344862B2, “Human intestinal epithelium model and method for preparing same” (KOREA RESEARCH INSTITUTE OF BIOSCIENCE AND BIOTECHNOLOGY, priority 2020, dated 2025).
